Results on eleven compounds are retold here after ChEMBL document CHEMBL1201862, “PubChem BioAssay data set” (2004).

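96-well plates; 48 h exposure; 5 concentrations. Endpoints by linear interpolation between flanking doses. Not reached: highest tested concentration assigned. GI50 = concentration required for 50% inhibition of growth.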 Active and inactive are the calls of the source. Rule as the data show it: active = GI50 up to about 1.1 µM and inactive = higher. Where only a bound is given, the exact number is not on record here.

Test systems include A498; HL-60; HOP-62; HOP-92; Hs-578T; K562; MDA-MB-435; MDA-N; MOLT-4; NCI-H226; OVCAR-5; OVCAR-8; PC-3; SF-539; SK-MEL-28; SNB-19; U-251; UACC-257; UO-31.
Test in all cases: inhibition of tumour cell growth, NCI panel, 48 h

On to `COc1cc2[nH]c(=O)c3cc(-c4ccccc4)cc4c(Cl)nc(c1OC)c2c43`, for which the GI50 in the test with A498 was > 100 µM (inactive); in the test with HL-60, 2.17 µM (inactive); in the test with HOP-62, 32.6 µM (inactive); with HOP-92 it was 41.8 µM (inactive); with Hs-578T, > 100 µM (inactive); with K562, 38.2 µM (inactive). The GI50 in the test with MDA-MB-435 was 2.81 µM (inactive); in the test on MDA-N, 3.86 µM (inactive); in the test with MOLT-4, 4.63 µM (inactive); in the test on NCI-H226, > 70.1 µM (inactive); in the test with OVCAR-5 it was 49.4 µM (inactive); with OVCAR-8, 5.14 µM (inactive). The GI50 with PC-3 was 4.86 µM (inactive); in the test with SF-539, 0.63 µM (active); with SK-MEL-28, 32.1 µM (inactive); in the test with SNB-19, 28.1 µM (inactive); in the test with U-251 it was 16.4 µM (inactive); with UACC-257 it was 4.69 µM (inactive). In addition, in the test with UO-31, the GI50 is 19.2 µM (inactive).
As for `CCCCC(=O)Nc1ccc2cc(C(=O)OC)c(Cl)nc2n1`, the GI50 was 37.1 µM (inactive) in the test with A498; 2.58 µM (inactive) in the test on HL-60; 7.11 µM (inactive) with HOP-62; > 100 µM (inactive) in the test with HOP-92; 4.7 µM (inactive) in the test on Hs-578T; > 100 µM (inactive) in the test with K562. Further, the GI50 in the test with MDA-MB-435, in the test with MDA-N, in the test with MOLT-4, with NCI-H226, with OVCAR-5 and with OVCAR-8 was > 100 µM (inactive) in each case. The GI50 with PC-3 is 19.7 µM (inactive); in the test on SF-539, > 100 µM (inactive); with SK-MEL-28, > 76.4 µM (inactive); in the test with SNB-19, 16.5 µM (inactive); in the test with U-251, 28.6 µM (inactive); in the test on UACC-257 it was 43.7 µM (inactive). The GI50 in the test with UO-31 is 19.9 µM (inactive).
Turning to `C[C@]12CCC3C4=C(CCC3C1CCC2=O)C(=O)[C@H]1O[C@H]1C4=O` (stereo partly drawn), the GI50 in the test with A498 was 17.1 µM (inactive); with HL-60, 2.67 µM (inactive); with HOP-62, 3.27 µM (inactive); with HOP-92, 7.67 µM (inactive); with Hs-578T, 9.51 µM (inactive); with K562 it was 1.29 µM (inactive). Besides, the GI50 in the test on MDA-MB-435 is 11.8 µM (inactive); in the test on MDA-N, 7.18 µM (inactive); in the test on MOLT-4, 0.785 µM (active); with NCI-H226, 2.18 µM (inactive); in the test on OVCAR-5, 3.77 µM (inactive); with OVCAR-8 it was 2.09 µM (inactive). Moreover, the GI50 in the test on PC-3 was 4.18 µM (inactive); in the test with SF-539 it was 1.92 µM (inactive); in the test with SK-MEL-28, 12.3 µM (inactive); in the test with SNB-19, 15.6 µM (inactive); with U-251 it was 2.75 µM (inactive); in the test with UACC-257 it was 17.4 µM (inactive). In the test with UO-31, the GI50 is 2.31 µM (inactive).
In the case of `C=CCC(CCC(C)=O)(C(=O)OCC)C(=O)OCC`, the GI50 in the test on A498, with HL-60, in the test on HOP-62, in the test with HOP-92, with Hs-578T and with K562 was > 100 µM (inactive) throughout. The GI50 with MDA-MB-435, in the test with MDA-N, in the test on MOLT-4, in the test on NCI-H226, in the test on OVCAR-5 and with OVCAR-8 was > 100 µM (inactive) throughout. The GI50 with PC-3, in the test on SF-539, in the test on SK-MEL-28, in the test on SNB-19, in the test with U-251 and with UACC-257 was > 100 µM (inactive) throughout. Further, the GI50 in the test with UO-31 was > 100 µM (inactive).
Regarding `O=c1oc2ccc(Cl)cc2c2ccccc12`, the GI50 with A498 is 75.7 µM (inactive); with HL-60 it was > 100 µM (inactive); in the test with HOP-62, 18.8 µM (inactive); in the test with HOP-92, 23.2 µM (inactive); in the test on Hs-578T, 18.3 µM (inactive); with K562 it was > 100 µM (inactive). The GI50 in the test on MDA-MB-435 was > 100 µM (inactive); in the test with MDA-N, > 100 µM (inactive); in the test with MOLT-4 it was > 100 µM (inactive); with NCI-H226, 27.5 µM (inactive); in the test on OVCAR-5 it was 78.3 µM (inactive); in the test with OVCAR-8, 65 µM (inactive). In addition, the GI50 in the test on PC-3 was > 100 µM (inactive); in the test on SF-539 it was > 100 µM (inactive); in the test with SK-MEL-28 it was > 100 µM (inactive); in the test on SNB-19, 20 µM (inactive); with U-251, 15.1 µM (inactive); in the test with UACC-257, > 100 µM (inactive).
Take `Nc1ccc(-c2nc3cc(F)ccc3s2)cc1I`: the GI50 is 15.8 µM (inactive) with A498; > 100 µM (inactive) with HL-60; 10.2 µM (inactive) in the test with HOP-62; 17.3 µM (inactive) in the test on HOP-92; 25.2 µM (inactive) with Hs-578T; > 77.3 µM (inactive) in the test with K562. The GI50 in the test with MDA-MB-435 is > 80.9 µM (inactive); in the test with MDA-N it was > 100 µM (inactive); in the test with MOLT-4 it was > 100 µM (inactive); with NCI-H226 it was 0.979 µM (active); in the test on OVCAR-5, 0.274 µM (active); in the test with OVCAR-8 it was 19.1 µM (inactive). Moreover, the GI50 in the test on PC-3 is 24.2 µM (inactive); in the test on SF-539, 15.6 µM (inactive); in the test with SK-MEL-28, 52.7 µM (inactive); with SNB-19, 21.1 µM (inactive); in the test on U-251, 13.9 µM (inactive); with UACC-257, 49.3 µM (inactive). Moreover, in the test on UO-31, the GI50 was 16.1 µM (inactive).
Regarding `NS(=O)(=O)c1ccc(/N=N/c2ccc(O)cc2)cc1`, the GI50 in the test on A498 was > 100 µM (inactive); in the test on HL-60, 30.1 µM (inactive); in the test on HOP-62, 92 µM (inactive); in the test on HOP-92, 75.3 µM (inactive); with Hs-578T, 61.8 µM (inactive); with K562, 7.46 µM (inactive). For the same compound, the GI50 in the test on MDA-MB-435 was 11.3 µM (inactive); in the test with MDA-N, 61.9 µM (inactive); in the test with MOLT-4, 4.25 µM (inactive); with NCI-H226, 19.3 µM (inactive); in the test with OVCAR-5, > 100 µM (inactive); with OVCAR-8 it was 45.3 µM (inactive). The GI50 with PC-3 is 66.7 µM (inactive); in the test with SF-539, 31.9 µM (inactive); with SK-MEL-28, 21.4 µM (inactive); with SNB-19, 83.2 µM (inactive); with U-251 it was 61 µM (inactive); in the test on UACC-257 it was 51.2 µM (inactive). Further, in the test on UO-31, the GI50 was 12.6 µM (inactive).
Consider `OC(C/C=N/Nc1ccccc1)(C(F)(F)Cl)C(F)(F)Cl`, for which the GI50 was > 10 µM (inactive) with A498; > 10 µM (inactive) with HL-60; > 10 µM (inactive) in the test with HOP-62; 7.35 µM (inactive) with HOP-92; 4.66 µM (inactive) with Hs-578T; 9.46 µM (inactive) in the test on K562. Also, the GI50 with MDA-MB-435 is 7.35 µM (inactive); in the test on MDA-N it was > 10 µM (inactive); in the test with NCI-H226 it was 7.38 µM (inactive); in the test with OVCAR-8, > 10 µM (inactive); in the test on PC-3, 4.05 µM (inactive); in the test on SF-539, > 10 µM (inactive). The GI50 in the test on SK-MEL-28 was > 10 µM (inactive); with SNB-19 it was > 10 µM (inactive); in the test with U-251, > 10 µM (inactive); in the test on UACC-257, > 10 µM (inactive); in the test with UO-31, 9.98 µM (inactive).
Take `CC(C)NC(=O)OCc1c(COC(=O)NC(C)C)n(C)c2c1ccc1ccsc12`: the GI50 is 9.73 µM (inactive) in the test with A498; 2.69 µM (inactive) in the test with HL-60; 12.7 µM (inactive) in the test on HOP-62; 10.1 µM (inactive) in the test with HOP-92; 8.87 µM (inactive) in the test on Hs-578T; 8.97 µM (inactive) in the test with K562. Moreover, the GI50 is 7.35 µM (inactive) in the test on MDA-MB-435; 12.4 µM (inactive) in the test on MDA-N; 1.71 µM (inactive) in the test on MOLT-4; 7.41 µM (inactive) in the test with NCI-H226; 17 µM (inactive) in the test with OVCAR-5; 9.59 µM (inactive) in the test on OVCAR-8. Further, the GI50 in the test with PC-3 was 15.3 µM (inactive); in the test on SK-MEL-28, 12.6 µM (inactive); with SNB-19, 10.8 µM (inactive); in the test with U-251, 8.45 µM (inactive); with UACC-257 it was 13.5 µM (inactive); in the test on UO-31, 7.1 µM (inactive).
Consider `COC(=O)[C@]12CCC(C)(C)C[C@H]1C1=CC[C@@H]3[C@@]4(C)CC[C@H](OC5OC(CO)C(O)C(O)C5OC5OC(CO)C(O)C(O)C5O)C(C)(C)[C@@H]4CC[C@@]3(C)[C@]1(C)CC2` (stereo partly drawn), for which the GI50 in the test with A498 was 11.3 µM (inactive); in the test with HL-60, 4.93 µM (inactive); in the test on HOP-62, 12.6 µM (inactive); in the test with HOP-92, 3.91 µM (inactive); in the test with Hs-578T, 22.5 µM (inactive); in the test on K562, 10.1 µM (inactive). Besides, the GI50 is 7.6 µM (inactive) in the test with MDA-MB-435; 5.43 µM (inactive) in the test on MDA-N; 17.5 µM (inactive) with MOLT-4; 3.43 µM (inactive) with NCI-H226; 16.6 µM (inactive) in the test with OVCAR-5; 15.9 µM (inactive) with OVCAR-8. Also, the GI50 is 3.89 µM (inactive) in the test on PC-3; 3.37 µM (inactive) with SK-MEL-28; 14.3 µM (inactive) in the test with SNB-19; 13.2 µM (inactive) in the test on U-251; 7.85 µM (inactive) in the test on UACC-257; 3.4 µM (inactive) in the test on UO-31.
Take `CCN1CCN(c2nc3ccccc3nc2C(=O)c2ccc(OC)cc2)CC1`: the GI50 in the test on A498 was 37.1 µM (inactive); with HL-60, > 100 µM (inactive); in the test on HOP-62, 16 µM (inactive); in the test with HOP-92, 18.3 µM (inactive); in the test with Hs-578T it was 38.6 µM (inactive); in the test on K562, 43.9 µM (inactive). The GI50 is 44.3 µM (inactive) in the test on MDA-MB-435; 32.1 µM (inactive) in the test with MDA-N; 28.8 µM (inactive) in the test on MOLT-4; 56.8 µM (inactive) in the test on OVCAR-5; 60.7 µM (inactive) in the test with OVCAR-8; 78 µM (inactive) with PC-3. In addition, the GI50 in the test with SF-539 is 26.4 µM (inactive); with SK-MEL-28, 36 µM (inactive); in the test on SNB-19, 90.2 µM (inactive); with U-251, 39.4 µM (inactive); in the test with UACC-257 it was 16.5 µM (inactive); in the test with UO-31 it was 19.7 µM (inactive).
